# Data published in patent US9896730B2, “Use of EMT gene signatures in cancer drug discovery, diagnostics, and treatment” (OSI Pharmaceuticals, LLC, priority 2011, dated 2018).
# Entries after “also recorded” stand apart in the source; their conditions may differ.
# B1: OSM: oncostatin M, EMT-inducing ligand (protein, UniProt P13725 26-221, looked up)
# Oncostatin-M: AAIGSCSKEYRVLLGQLQKQTDLMQDTSRLLDPYIRIQGLDVPKLREHCRERPGAFPSEETLRGLGRRGFLQTLNATLGCVLHRLADLEQRLPKAQDLERSGLNIEDLEKLQMARPNILGLRNNIYCMAQLLDNSDTAEPTKAGRGASQPPTPTPASDAFQRKLEGCRFLHGYHRFMHSVGRVFSKWGESPNRSRR
# Legend:
# H358 cells [1] = test: Cell proliferation (Cell Titer Glo): erlotinib sensitivity in H358 EMT models; type: cell-based, human; conditions: ligand- and snai1-induced EMT
# Description: (§1) Measurement of Cell Proliferation: Cell proliferation was determined using the Cell Titer Glo assay (Promega Corporation, Madison, Wis.). Cell lines were seeded at a density of 3000 cells per well in a 96-well plate. For assessment of drug effects on proliferation, 24 hours after plating, cells were dosed with varying concentrations of drug, either as a single agent or in combination. The signal for Cell Titer Glo was determined 72 hours after dosing.
# (§2) Ligand-driven EMT models: NCI-H358 cells were cultured in RPMI medium (Gibco #21870) with 10% fetal bovine serum (Sigma), 1 mM sodium pyruvate (Gibco #11360), 2 mM L-glutamine (Gibco #25030) and 10 mM HEPES (Gibco #15630). For ligand treatment, cells were seeded in normal growth medium and stimulated the following day (Day 0) with 100 ng/ml HGF (Peprotech #100-39), 100 ng/ml OSM (R and D systems, 295-OM), 2.5 ng/ml TGFβ1 (EMD Biosciences #616450) or combinations of the three. Medium was changed and fresh ligand was added on day 4 and day 6 after stimulation, such that samples were stimulated with fresh ligand 24 hrs prior to RNA isolation. For analysis containing drug treatments, DMSO or Drug was added to the samples at time of ligand treatments. Samples were taken for RNA Day 1, Day 4 and Day 7. […]
# H1650 cells = test: Cell proliferation (Cell Titer Glo): erlotinib sensitivity in H1650 EMT model; type: cell-based, human; conditions: H1650 cells in vitro, before or after EMT induction
# Description: as §1, §2
# [2] = system: advanced, treatment-refractory NSCLC; conditions: Phase III, monotherapy, patients with advanced; cited from earlier work
# lung tumors = conditions: adenocarcinoma patients versus squamous cell carcinoma patients; cited from earlier work
# H358 cells [3] = test: 88 gene EMTGS qPCR and EMT characterization, ligand-driven H358 EMT model; type: cell-based, human; conditions: 7 day ligand stimulation
# Description: as §2, with “7. NCI-H1650 and NCI-H292 cells were grown in RPM medium (Gibco #21870) with 10% fetal bovine serum (Sigma), 1 mM sodium pyruvate (Gibco #11360), 2 mM L-glutamine (Gibco #25030) and 10 mM HEPES (Gibco #15630). CFPAC1 cells (ATCC #CRL-1918) were cultured in DMEM (Gibco #11960) supplemented with 10% FBS (Sigma), 2 mM L-glutamine (Gibco #25030). A549 cells were cultured in MEM with 10% fetal bovine serum, 2 mM L-glutamine and 1 mM sodium pyruvate. Cells were treated with ligand for 7 days and harvested as described for NCI-H358 cells in [249] unless otherwise noted.” for “7.”
# (§3) Normalization genes used with 88 gene EMTGS for RT-PCR Analysis: The genes GTF2B, GAPDH, SDHA, and ACTB were chosen as normalization genes in qPCR analysis. […] The Delta Ct is then calculated as follows: Delta Ct=(Ct value of Gene X)−(Geometric mean of all normalization genes) For calculation of fold change between a control sample and a treated sample: Control sample=2^(−Delta Ct) Treated sample=2^(−Delta Ct) Fold change=Treated sample/Control sample Values below 1 (ratios) are converted to fold change by multiplying by −(1/X)
# A549 cells = test: 88 gene EMTGS qPCR, A549 cells treated with TNF and TAK1 siRNA; type: cell-based, human; conditions: relative to untreated cells
# Description: as §2, §3
molecule,measurement,setting,value
"C#Cc1cccc(Nc2ncnc3cc(OCCOC)c(OCCOC)cc23)c1 [erlotinib, [6,7-bis(2-methoxyethoxy)-4-quinazolin-4-yl]-(3-ethynylphenyl)amine]",sensitivity to erlotinib after EMT induction,H358 cells [1],decreased sensitivity; also recorded: decreases
same,sensitivity to erlotinib,H1650 cells,not sensitive
same,disease progression,[2],delayed disease progression
same,survival,[2],significantly prolonged survival
same,worsening of lung cancer-related symptoms,[2],delayed worsening
same,clinical response,lung tumors,respond better
"HGF: hepatocyte growth factor, EMT-inducing ligand","extent of EMT induced (morphology, biomarker, phenotypic changes)",H358 cells [3],partial EMT
"TGFβ: transforming growth factor β, EMT-inducing ligand","extent of EMT induced (morphology, biomarker, phenotypic changes)",H358 cells [3],more advanced EMT
TNFa,effect on epithelial genes of 88 gene EMTGS,A549 cells,downregulation
same,effect on mesenchymal genes of 88 gene EMTGS,A549 cells,upregulation
B1,"extent of EMT induced (morphology, biomarker, phenotypic changes)",H358 cells [3],partial EMT
